According to patent US9394338B2, “Glutathione analogs and uses thereof” (REGENTS OF THE UNIVERSITY OF MINNESOTA, priority 2011, dated 2016):

Key:
SH-SY-5Y cells [1] = assay: Protection against H2O2 cytotoxicity, MTT assay; format: cell-based, human; conditions: preincubation 24 h, H2O2 50 μM 30 min
Method: Similar procedures were used for determining the protective effect of GSH and its analog against H2O2 cytotoxicity. After preincubation of cells with GSH or Ψ-GSH for 24 hours, cells were exposed to H2O2 (50 μM) for 30 min and the media was replaced with fresh media. Cells were incubated for an additional 24 h after which the cell viability was the determined by the MTT assay as described earlier.

yeast glyoxalase I = biological target: T1, yeast glyoxalase I (Saccharomyces cerevisiae, UniProt P50107); assay: Glyoxalase I enzyme kinetics assay; format: biochemical; conditions: yeast Glx-I, MG, 30° C., phosphate buffer pH 6.6
T1 construct: purchased Sigma
T1 sequence (P50107 1-326): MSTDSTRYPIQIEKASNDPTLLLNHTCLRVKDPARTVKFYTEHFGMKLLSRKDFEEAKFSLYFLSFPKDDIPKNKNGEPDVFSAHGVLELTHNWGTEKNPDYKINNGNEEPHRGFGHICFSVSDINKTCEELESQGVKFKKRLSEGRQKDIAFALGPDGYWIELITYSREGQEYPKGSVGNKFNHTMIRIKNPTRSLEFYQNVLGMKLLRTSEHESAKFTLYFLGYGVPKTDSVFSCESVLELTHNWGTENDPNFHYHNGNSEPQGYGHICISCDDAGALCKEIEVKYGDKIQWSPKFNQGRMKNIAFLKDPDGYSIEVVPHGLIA
Method: Glyoxalase I Enzyme Kinetics Assay. The glutathione analog, Ψ-GSH and asparthione were examined for their ability to act as substrates for the yeast glyoxalase I mediated […] of MG. The commercial 40% methylglyoxal solution was distilled to remove polymerization products. Enzyme assays were performed (30° C., 0.05 M phosphate buffer (pH 6.6)) using a thermostated Beckman DU® 7400 spectrophotometer. Fresh solutions of GSH, Ψ-GSH and asparthione were prepared on the day of the assays with distilled, deionized water. In each assay, the cell contained a total volume of 3.0 mL which was no more than 6.0 mM with respect to methylglyoxal and 1.3 mM with respect to GSH or its analogs. […] Data were analyzed utilizing an Enzyme kinetics module of Sigmaplot 9.0 from Systat Software Inc.

[2] = system: equine kidney γ-glutamyltranspeptidase; assay: γ-Glutamyltranspeptidase assay (stability to γ-GT mediated degradation); format: in vitro ADME
Method: γ-Glutamyltranspeptidase Assay. […] The plates were developed alongside authentic predicted degradation products with the solvent system: 4:1.5:2; Butanol/Acetic acid/Water. Visual detection of TLC spots was performed under UV and also by iodine and fluorescamine staining solution.

SH-SY-5Y cells [3] = assay: Determination of intracellular MG concentration after glucose treatment; format: cell-based, human; conditions: 50 mM glucose three days, compound 500 μM
Method: Determination of Intracellular MG Concentration. SHSY5Y cells were seeded in a T150 flask and allowed to grow for 24 h. The next day, cells were treated with glucose (50 mM) in the presence and the absence of GSH or Ψ-GSH (500 μM). Cells without glucose treatment were used as a control. After 3 days of treatment, the cell pellet was collected and sonicated in 1 mL of PBS buffer to obtain cell lysates, which were derivatized as follows: 1 mL of cell lysate+0.2 mL 5 M HClO4+0.2 mL 10 mM 1,2 diaminobenzene+0.1 mL 1 μM 5-methylquinoxaline (internal std.)+0.5 mL water to 2 mL final volume. Samples were incubated at room temperature overnight and then centrifuged. The supernatant was passed through a C-18 SPE cartridge which had been prepared by flushing 2-4 mL of acetonitrile followed by 2-4 mL of 10 mM KH2PO4 (pH 2.4). After evaporation of the acetonitrile layer, the solid obtained was redissolved in 0.2 mL of 20% acetonitrile in 10 mM KH2PO4 (pH=2.4). The concentration of MG derivative, 2-methylquinoxaline, was measured using a Beckman Coulter Gold chromatography system. The column was Varian Microsorb-MV 300-5 25 cm C18 column (4.6 mm internal diameter and 5 μm particle diameter). The mobile phase was 80 vol % of 10 mM KH2PO4 and 20 vol % of HPLC grade acetonitrile. […]

[4] = Pharmacokinetic evaluation in plasma; format: in vivo, C57BL/6 mice; conditions: single i.p. dose 500 mg/kg; for CL_F Clearance / absorption half-life / half-life / AUC / Cmax / Tmax: C57BL/6 mice, plasma; for absorption half-life / half-life / AUC / Cmax / Tmax: female, ip; for absorption half-life / half-life: C57BL/6, mouse, 500 mg/kg; for absorption half-life: read-out: K01 absorption half life (converted); for half-life: read-out: K10 elimination half life (converted); for AUC / Cmax / Tmax: mouse
Method: Pharmacokinetic Evaluation of Ψ-GSH. Eight weeks old C57BL/6 female mice (n=4 animals/time point) were given 500 mg/kg of GSH or Ψ-GSH in saline intraperitoneally. Blood samples were collected at […], 1, 2, 4, 8, 24 hr after the drug administration through retro-orbital bleeding into heparin-coated tubes. Blood was immediately centrifuged at 5000×g for 10 min at 4° C. The top plasma layer was transferred into a new tube and mixed with an equal volume of 5% sulfosalicylic acid in […] potassium phosphate buffer containing 1 mM EDTA disodium salt (pH 7.2). This was followed by centrifugation of samples at 8000×g for 10 min at 4° C. and analysis of thiol concentration. The derivatization reaction was realized utilizing 130 μL of the supernatant, 500 μL of Tris-HCl buffer 0.5 M, pH 8.9 and 350 μL of DTNB 10 mM in of K2HPO4 (0.5 M, pH 8.0). After 5 min in an ice bath, the reaction mixture was acidified by addition of 100 μL H3PO4 7 M and centrifuged at 3000×g for 10 min. Then, derivatized GSH or Ψ-GSH was filtered through a 0.22 μm membrane and 20 μL was injected in HPLC at 330 nm. HPLC analysis was carried out on a Beckman Coulter Gold HPLC system, controlled by a system controller (32 Karat workstation with PC). The HPLC conditions employed a Varian Microsorb column (C18, 5 μm, 4.6×250 mm) using solvent A [water containing 0.9% v/v formic acid] and solvent B [acetonitrile] with 1 mL/min flow rate and detected at 330 nm. Solvent B was increased from 0 to 30% in 9 min, then to 80% in 7 min, and held at 80% for an additional 4 min. The retention time for derivatized Ψ-GSH was 11.8 minutes.

| Structure (SMILES) | protection against peroxide cytotoxicity (SH-SY-5Y cells [1]) | slope for initial velocity vs. substrate concentration (yeast glyoxalase I) | time to complete degradation by γ-GT ([2]; incubation with γ-GT) [min] | glucose-induced intracellular MG accumulation (SH-SY-5Y cells [3]) | CL_F Clearance [4] [mL/min/kg] | absorption half-life [4] [min] | half-life [4] [min] | AUC [4] [µg·h/mL] | Cmax [4] [µg/mL] | Tmax [4] [min] | degradation during incubation with γ-GT ([2]; incubation with γ-GT for up to 24 h) | AUC relative to GSH [4] [fold] | Cmax relative to GSH [4] [fold] | Tmax relative to GSH [4] [fold] |
| --- | --- | --- | --- | --- | --- | --- | --- | --- | --- | --- | --- | --- | --- | --- |
| N[C@@H](CCC(=O)N[C@@H](CS)C(=O)NCC(=O)O)C(=O)O [GSH, Glutathione] | dose-dependent protection | 0.1954±0.0216 | ≤ 30 | prevented glucose-induced intracellular MG accumulation | 165.9 | 7.62 | 29.7 | 50.2 | 43.9 | 20.2 | – | – | – | – |
| N[C@@H](CNC(=O)N[C@@H](CS)C(=O)NCC(=O)O)C(=O)O [Ψ-GSH, γ-Gla-Cys-Gly-OH] | dose-dependent protection | 0.0498±0.0040 | – | prevented glucose-induced intracellular MG accumulation | 31.15 | 10.3 | 73.6 | 267 | 110 | 34 | No appreciable degradation | 5.3 | 2.5 | 3 |
